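Interpolation was linear, between the two tested concentrations surrounding the appropriate level; five concentrations were tested over 48 hours in 96-well plates. Abbreviation: GI50, concentration required for 50% inhibition of growth. TGI is the concentration that stops growth completely.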

Here are results for ten compounds from PubChem BioAssay (NCI).

Assay in all cases: NCI anticancer screen, dose series, 48 h
Experiment [1] concerns A498 renal.
The subject of experiment [2] is EKVX NSCLC.
Experiment [3] has as its system HCT-15 colon.
Experiment [4] has as its system HL-60(TB) leukemia.
Experiment [5] concerns HOP-62 NSCLC.
Experiment [6] deals with K-562 leukemia.
Experiment [7] deals with LOX IMVI melanoma.
Experiment [8] concerns SF-539 CNS.
For experiment [9], the system named is UACC-62 melanoma.
Experiment [10] relates to TK-10 renal.

Regarding `COc1cccc(/C=C/[N+](=O)[O-])c1`, the GI50 in [1] is 3.54 µM; in [2], 19 µM; in [3], 2.17 µM; in experiment [4] it was 2.31 µM; in experiment [5], 12.8 µM; in experiment [6], 2.92 µM. Moreover, the values for the GI50 in experiment [7], in experiment [8] and in [9] were 1.66 µM, 2.64 µM and 3.29 µM, respectively. Moreover, the TGI turned out to be 16.5 µM in experiment [1]; 76.2 µM in experiment [2]; 6.18 µM in experiment [3]; 5.77 µM in experiment [4]; 26.6 µM in experiment [5]; 11.5 µM in experiment [6]. Besides, the values for the TGI in [7], in experiment [8] and in experiment [9] were 3.12 µM, 8.72 µM and 12.8 µM, respectively.

`O=C(Nc1ccc(Cl)cc1Cl)C1C(=O)C(=O)N(c2ccc(Cl)cc2Cl)C1=O` (configuration not stated): the TGI in [1], in experiment [2], in experiment [3], in experiment [4], in experiment [5] and in experiment [7] was over 100 µM throughout. Besides, the TGI in [8], in [10] and in experiment [9] was over 100 µM in each case.

Regarding `C/C(=N\Nc1cc(C)c2ccccc2n1)c1ccccn1`, the GI50 is 0.284 µM in [1]; under 0.0493 µM in experiment [3]; under 0.0365 µM in experiment [4]; 0.07 µM in [5]; 0.0865 µM in experiment [6]; 0.0807 µM in experiment [7]. Also, the GI50 in [8] is 0.0778 µM; in experiment [9], 0.11 µM. In addition, the TGI in experiment [1] was 3.04 µM; in [3], 1.81 µM; in [4] it was 0.155 µM; in experiment [5], 1.37 µM; in experiment [6], 1.5 µM; in [7], 1.31 µM. In addition, the values for the TGI in [8], in experiment [10] and in experiment [9] were 0.693 µM, 2.76 µM and 0.631 µM, respectively.

Turning to `Nc1c2c(c(O)c3c1=C(CO)C=N3)=NCCS2`, the GI50 was 0.148 µM in experiment [1]; 0.311 µM in experiment [2]; 0.166 µM in experiment [3]; 0.222 µM in experiment [4]; 0.175 µM in experiment [5]; 0.243 µM in experiment [6]. The GI50 in experiment [8] was 0.165 µM; in [10], 0.42 µM; in [9], 0.156 µM. Further, the TGI is 0.285 µM in experiment [1]; 1.2 µM in experiment [2]; 0.381 µM in experiment [3]; 0.512 µM in [4]; 0.317 µM in experiment [5]; 0.682 µM in [6]. Moreover, the TGI in experiment [8] is 0.301 µM; in experiment [10] it was 1.46 µM; in [9], 0.33 µM.

For the compound `O=C(c1ccccc1)c1c(-c2ccccc2)sc2nc3ccccc3nc12`, the TGI in [1], in experiment [2], in experiment [3], in experiment [4], in experiment [5] and in [6] was over 100 µM throughout. The TGI in experiment [8], in experiment [10] and in experiment [9] was over 100 µM in each case.

In the case of `C[C@@H](O)[C@H](NC(=O)N[C@@H](CC(N)=O)c1nc([C@@H](N)CO)no1)C(=O)O`, the GI50 in experiment [1], in [2], in experiment [3], in experiment [4], in experiment [5] and in [7] was over 100 µM each time. Besides, the GI50 in [8], in [10] and in experiment [9] was over 100 µM in each case. Further, the TGI in [1], in experiment [2], in experiment [3], in experiment [4], in experiment [5] and in experiment [7] was over 100 µM each time. In addition, the TGI in [8], in experiment [10] and in [9] was over 100 µM in each case.

Take `CC(=O)c1cccc(C)c1C(=O)O`: the TGI in [1], in experiment [2], in [3], in [4], in experiment [5] and in experiment [6] was over 100 µM in each case. For the same compound, the TGI in [7], in experiment [10] and in [9] was over 100 µM in each case.

Regarding `COc1cc(N2CCC(N3CCN(C)CC3)CC2)ccc1Nc1ncnc(Nc2ccccc2S(=O)(=O)C(C)C)n1`, the GI50 in [1] was 2.3 µM; in experiment [3], 3.5 µM; in [4], 11.7 µM; in experiment [5], 2.29 µM; in [6], 10.6 µM; in [7], 2.28 µM. Besides, the GI50 is 3.46 µM in experiment [8], 5.21 µM in [10] and 8.35 µM in experiment [9]. Moreover, the TGI in [1] is 17.2 µM; in experiment [3], over 46.5 µM; in [4], 32.2 µM; in experiment [5], 11.1 µM; in experiment [6] it was 73.7 µM; in [7], 7.62 µM. For the same compound, the TGI in [8] is 14.6 µM; in [10], 22 µM; in experiment [9] it was 27.1 µM.

`CC1=C(C(=O)Nc2cc(=O)n(C)c(=O)n2C)C(c2cccc([N+](=O)[O-])c2)C(C(=O)Nc2cc(=O)n(C)c(=O)n2C)=C(C)N1`: the TGI in experiment [1], in experiment [2], in experiment [4], in experiment [5], in experiment [6] and in experiment [7] was over 100 µM throughout. Moreover, the results for the TGI in [8] and in experiment [10] were 61.7 µM and over 100 µM, respectively.

For the compound `N#Cc1ccc2c(c1)C(=O)c1c-2n(CCCCl)c(=O)c2cc([N+](=O)[O-])ccc12`, the GI50 in experiment [1] is 22.8 µM; in experiment [2], 50.4 µM; in experiment [3] it was 58.4 µM; in experiment [4], 11.4 µM; in experiment [5] it was 2.55 µM; in experiment [7] it was 2.28 µM. Also, the values for the GI50 in experiment [8], in experiment [10] and in experiment [9] were 2.62 µM, 42.9 µM and 1.13 µM, respectively. Further, the TGI in experiment [1] was 55.3 µM; in experiment [2] it was over 100 µM; in experiment [3] it was over 100 µM; in experiment [4] it was 29.9 µM; in experiment [5] it was 14 µM; in [7], 14.8 µM. The TGI was 10.5 µM in [8], over 100 µM in experiment [10] and 9.96 µM in experiment [9].
